Counter-ions that a name gives are not always drawn. Like-named read-outs stand apart in the source and are kept apart here.
Columns and labels:
Eggerthella lenta = assay: MIC, clindamycin prodrugs; assay type: cell-based
[1] = system: Bifidobacterium adolescentis; assay: MIC, clindamycin prodrugs; assay type: cell-based; details: NCTC 11814
[2] = system: Staphylococcus haemolyticus; assay: MIC, clindamycin prodrugs; assay type: cell-based; details: antibiotic susceptible clinical isolate
Veillonella atypical = assay: MIC, clindamycin prodrugs; assay type: cell-based; details: NCTC 11830
Staphylococcusaureus = assay: MIC, clindamycin prodrugs; assay type: cell-based
Veillonella parvula = assay: MIC, clindamycin prodrugs; assay type: cell-based; details: NCTC 11810
Streptococcus pneumoniae = assay: MIC, clindamycin prodrugs; assay type: cell-based
Clostridium perfringens = assay: microbe, parasite or virus in culture; assay type: cell-based
Prevotella denticola = details: clinical isolate
Streptococcus oralis = details: antibiotic-susceptible clinical isolate
Streptococcus pyogenes = assay: MIC, clindamycin prodrugs; assay type: cell-based
Campylobacter jejuni = assay: MIC, clindamycin prodrugs; assay type: cell-based
[3] = Stability in USP simulated gastric juice; assay type: in vitro ADME; details: USP SGF pH 1.1, pepsin […], prodrug 20 μg/mL
Source text: To minimize the direct inhibitory action of this drug on gastric emptying/gut motility—and resultant nausea—the prodrug should not undergo premature chemical or enzymic cleavage back to the parent drug while within the gut lumen.

Streptococcus mitis = details: antibiotic-susceptible clinical isolate
[4] = system: Prevotella melaninogenicus; assay: MIC, clindamycin prodrugs; assay type: cell-based
[5] = system: Peptostreptococcus magnus; details: clinical isolate
Bifidobacterium longum = assay: MIC, clindamycin prodrugs; assay type: cell-based; details: NCTC 11818
Bacteroides fragilis = assay: MIC, clindamycin prodrugs; assay type: cell-based
[6] = system: Bacteroides thetaiotamicron; assay: MIC, clindamycin prodrugs; assay type: cell-based
[7] = system: Porphyromonas endodontalis; details: clinical isolate
Propionibacterium acnes = assay: MIC, clindamycin prodrugs; assay type: cell-based
Bifidobacterium dentium = assay: MIC, clindamycin prodrugs; assay type: cell-based; details: NCTC 11816
Prevotella bivia = details: ATCC 29303
Clostridium sporogenes = assay: MIC, clindamycin prodrugs; assay type: cell-based; details: ATCC 3584
Campylobacter coli = assay: MIC, clindamycin prodrugs; assay type: cell-based
Helicobacter pylori = assay: MIC, clindamycin prodrugs; assay type: cell-based
Clostridium novyi = details: ATCC 19402
[8] = relative bioavailability of clindamycin vs dosing clindamycin itself, male rats, mean
Experimental: Serial tail vein blood samples were subsequently collected via an indwelling cannuala into EDTA tubes containing a stabilising cocktail (including 6 mg/mL NaF) to prevent post collection enzymic hydrolysis of the prodrug.

Group C Streptococcus = assay: MIC, clindamycin prodrugs; assay type: cell-based; details: antibiotic-susceptible clinical isolate
[9] = system: Staphylococcus epidermidis; assay: MIC, clindamycin prodrugs; assay type: cell-based
[10] = antibiotic-susceptible clinical isolate

Compound `CCCC1CC(C(=O)NC(C(C)Cl)C2OC(SC)C(OC(=O)CCC(=O)N[C@H](C(=O)O)C(C)C)C(O)C2O)N(C)C1` (stereo partly drawn) [Clindamycin succinyl valine ester, Clindamycin-2-[succinyl-(S)-valine]ester trifluoroacetate] has a Minimum inhibitory concentration (Eggerthella lenta; ATCC 43055) of 8 µg/mL, a Minimum inhibitory concentration (Eggerthella lenta; clinical isolate) of 8 µg/mL and a Minimum inhibitory concentration [1] of 0.5 µg/mL. For the same compound, the Minimum inhibitory concentration [2] was 2 µg/mL, the Minimum inhibitory concentration (Veillonella atypical) was 2 µg/mL and the Minimum inhibitory concentration (Staphylococcusaureus; ATCC 25923 - antibiotic-susceptible type strain) was 1 µg/mL. The Minimum inhibitory concentration (Staphylococcusaureus; ATCC 29213 - antibiotic-susceptible type strain) was 2 µg/mL, the Minimum inhibitory concentration (Staphylococcusaureus; ATCC 43300 - methicillin-resistant type strain) was over 64 µg/mL and the Minimum inhibitory concentration (Veillonella parvula) was 1 µg/mL. For the same compound, the Minimum inhibitory concentration (Streptococcus pneumoniae; ATCC 49619 antibiotic-susceptible type strain) was 0.5 µg/mL, the Minimum inhibitory concentration (Streptococcus pneumoniae; penicillin-susceptible clinical isolate) was 0.5 µg/mL and the Minimum inhibitory concentration (Clostridium perfringens; ATCC 13124) was 1 µg/mL. For the same compound, the Minimum inhibitory concentration (Clostridium perfringens; [10]) was 1 µg/mL, the Minimum inhibitory concentration (Prevotella denticola) was 1 µg/mL and the Minimum inhibitory concentration (Clostridium difficile; ATCC 700057) was over 64 µg/mL. For the same compound, the Minimum inhibitory concentration (Clostridium difficile; NCTC 13366 - NAP1/027) was 64 µg/mL, the Minimum inhibitory concentration (Clostridium difficile; [10]) was over 64 µg/mL and the Minimum inhibitory concentration (Clostridium difficile; ribotype 002 - clinical isolate) was 64 µg/mL. For the same compound, the Minimum inhibitory concentration (Clostridium difficile; ribotype 011 - clinical isolate) was 64 µg/mL, the Minimum inhibitory concentration (Clostridium difficile; ribotype 027 - clinical isolate) was 64 µg/mL and the Minimum inhibitory concentration (Clostridium difficile; ribotype 050 - clinical isolate) was 32 µg/mL. For the same compound, the Minimum inhibitory concentration (Clostridium difficile; ribotype 176 - clinical isolate) was over 64 µg/mL, the Minimum inhibitory concentration (Streptococcus oralis) was 0.25 µg/mL and the Minimum inhibitory concentration (Streptococcus pyogenes; Macrolide (MLS) resistant clinical isolate) was 2 µg/mL. For the same compound, the Minimum inhibitory concentration (Streptococcus pyogenes; [10]) was 1 µg/mL, the Minimum inhibitory concentration (Campylobacter jejuni; ATCC 33560) was “≦0.03 ug/mL” and the Minimum inhibitory concentration (Campylobacter jejuni; clinical isolate) was “≦0.03 ug/mL”. For the same compound, the “Simulated gastric juice (1 h, 37° C.) % active drug generated” value [3] was under 1%, the Minimum inhibitory concentration (Streptococcus mitis) was 0.25 µg/mL and the Minimum inhibitory concentration ([4]; clinical isolate (first listed, r37)) was 0.25 µg/mL. It also gave a Minimum inhibitory concentration ([4]; clinical isolate (second listed, r38)) of 0.25 µg/mL, a Minimum inhibitory concentration [5] of 16 µg/mL and a Minimum inhibitory concentration (Bifidobacterium longum) of 0.5 µg/mL. The Minimum inhibitory concentration (Bacteroides fragilis; ATCC 25285) was 8 µg/mL, the Minimum inhibitory concentration (Bacteroides fragilis; clinical isolate) was 8 µg/mL and the Minimum inhibitory concentration ([6]; ATCC 29741) was 16 µg/mL. It also gave a Minimum inhibitory concentration ([6]; NCTC 10582) of 32 µg/mL, a Minimum inhibitory concentration [7] of 0.12 µg/mL and a Minimum inhibitory concentration (Propionibacterium acnes) of 2 µg/mL. It also gave a Minimum inhibitory concentration (Propionibacterium acnes; clinical isolate MIC clindamycin 0.5 mg/L) of 2 µg/mL, a Minimum inhibitory concentration (Bifidobacterium dentium) of 0.5 µg/mL and a Minimum inhibitory concentration (Prevotella bivia) of 0.5 µg/mL. The Minimum inhibitory concentration (Clostridium sporogenes) was over 64 µg/mL, the Minimum inhibitory concentration (Campylobacter coli; ATCC 33559) was “≦0.03 ug/mL” and the Minimum inhibitory concentration (Campylobacter coli; clinical isolate) was “≦0.03 ug/mL”. For the same compound, the Minimum inhibitory concentration (Helicobacter pylori; ATCC 43504) was “≦0.03 ug/mL”, the Minimum inhibitory concentration (Helicobacter pylori; clinical isolate (r56)) was “≦0.03 ug/mL” and the Minimum inhibitory concentration (Helicobacter pylori; clinical isolate (r57)) was “≦0.03 ug/mL”. For the same compound, the Minimum inhibitory concentration (Helicobacter pylori; clinical isolate (r100)) was “≦0.03 ug/mL”, the Minimum inhibitory concentration (Helicobacter pylori; clinical isolate (r101)) was “≦0.03 ug/mL” and the Minimum inhibitory concentration (Clostridium novyi) was 0.5 µg/mL. The Frel [8] was 8%, the Minimum inhibitory concentration (Group C Streptococcus) was 1 µg/mL and the Minimum inhibitory concentration ([9]; antibiotic susceptible clinical isolate) was 2 µg/mL. It also gave a Minimum inhibitory concentration ([9]; methicillin-resistant clinical isolate) of 4 µg/mL.

Source: patent publication US20120202756A1, “USE OF PRODRUGS TO AVOID GI MEDIATED ADVERSE EVENTS” (priority 2009, published 2012)
